Read-outs that look alike come from different tables or passages of the source.
Legend:
[1] = tested on: H3K27me3 mark in HeLa cells; assay: H3K27me3 Alpha Hela Assay (AlphaLISA); type: cell-based; conditions: 72 hrs incubation
Description: H3K27me3 Alpha Hela Assay (AlphaLISA).
Ten different doses of each test compound (in a series of 3-fold dilutions) were plated in duplicate 384-well tissue culture treated plates (Catalog #781080; Greiner Bio One; Monroe, N.C.). Hela cells grown in culture were trypsinized and counted using a Countess® cell counter (Catalog #C10281; Life Technologies, Grand Island, N.Y.). Cell were diluted to 67,000 cells per mL in 10% DMEM (Catalog #10569-010 Life Technologies, Grand Island, N.Y.) and 15 μL (1,000 cells) were plated into each well using the Biotek MicroFlo™ Select Dispenser (BioTek Instruments, Inc. Vermont, USA),) of the 384-well plate. Plates were incubated at 37° C./5% CO2 for 72 hrs. One of the duplicate plates was processed for HeLa assay and the other for viability.
To the plate processed for AlphaLISA was added 5 μL per well Cell-Histone Lysis buffer (1×) (Catalog #AL009F1 Perkin Elmer; Waltham, Mass.) and the plate was incubated at RT for 30 minutes on a plate shaker with low speed (Model #4625-Q Thermo Scientific; Waltham, Mass.). Then, 10 μL per well Histone Extraction buffer (catalog #AL009F2; Perkin Elmer; Waltham, Mass.) was added and the plate further incubated at RT for 20 min on plate shaker with low speed. To each well was then added 10 μL per well of a 5× mix of anti-K27me3 acceptor beads plus Biotinylated anti-Histone H3 (C-ter) Antibody (diluted to 3 nM final) (Catalog #AL118 Perkin Elmer; Waltham, Mass.). Dilution of the acceptor beads and then anti-Histone H3 was with 1× Histone Detection buffer (Catalog #AL009F3 Perkin Elmer; Waltham, Mass.) which was produced diluted from the 10× stock provided. The plate was sealed with an aluminum plate sealer and incubated at 23° C. for 60 min. […] The plates were then read using an EnVision-Alpha Reader (model #2104 Perkin Elmer; Waltham, Mass.).
Data from both assays was analyzed using Assay Assistant (Constellation Pharmaceuticals In-house product) and Activity Base (IDBS Ltd, Surrey, UK) template. […] Readout of DMSO wells were used to normalize the data. […]

[2] = biological target: EZH2 (Homo sapiens, UniProt Q15910); assay: EZH2 assay: rPRC2 methyltransferase, 3H SAM FlashPlate; type: biochemical; conditions: 0.2 μM 3H SAM, 2 nM EZH2
Description: (§1) Assays were carried out by mixing rPRC2 together with biotinylated oligonucleosome substrates in the presence of the radio-labeled enzyme co-factor, S-adenosyl-L-methionine (^3H SAM) (Perkin Elmer) and monitoring the enzymatically mediated transfer of tritiated methyl groups from ^3H SAM to histone lysine residues. The amount of resulting tritiated methyl histone product was measured by first capturing the biotinylated oligonucleosomes in streptavidin (SAV) coated FlashPlates (Perkin Elmer), followed by a wash step to remove un-reacted ^3H SAM, and then counting on a TopCount NXT 384 well plate scintillation counter (Perkin Elmer). The final assay conditions for EZH2 were as follows: 50 mM Tris Buffer pH 8.5, 1 mM DTT, 69 μM Brij-35 detergent, 5.0 mM MgCl2, 0.1 mg/mL BSA, 0.2 μM ^3H SAM, 0.2 μM biotinylated oligonucleosomes, 3.6 μM H3K27me3 peptide and 2 nM EZH2.
(§2) A 12.5 μL volume of the HMT enzyme, H3K27me3 peptide and oligonucleosome substrate in assay buffer was added to each well of the assay plate using a Multidrop Combi (Thermo-Fisher). Compounds were pre-incubated with the enzyme for 20 min, followed by initiation of the methyltransferase reaction by addition of 12.5 μL of ^3H SAM in assay buffer (final volume=25 μL). The final concentrations of compounds ranged from a top default concentration of 80 μM down to 0.16 μM in ten 2-fold dilution steps. Reactions were carried out for 60 minutes and quenched with 20 μL per well of 1.96 mM SAH, 50 mM Tris pH 8.5, 200 mM EDTA. Stopped reactions were transferred to SAV coated Flash-plates (Perkin Elmer), incubated for 120 min, washed with a plate washer, and then read on the TopCount NXT (1.0 min/well) to measure the amount of methyl histone product formed during the reaction.

[3] = tested on: H3K27me3 mark in HeLa cells; assay: H3K27me3 MSD Hela Assay; type: cell-based
Description: Trypsinized HeLa cells were counted and diluted in 10% DMEM (Life Technologies, Cat. #10569) to 5000 cells/75 μL. Seventy-five μL of cells were place in each well of a 96-well flat-bottomed plate and incubated at 37° C. for 4 hours. Twenty-five μL of test compound (at various concentrations) was added to the cells and incubation continued at 37° C. for 96 hours. Media was then removed and the cells rinsed once with ice cold PBS. Forty μL of ice-cold MSD Buffer AT (10 mM HEPES, pH 7.9, 5 mM MgCl2, 0.25M sucrose, Benzonase (1:10000), 1% Triton X-100 supplemented with fresh 1× Protease Inhibitor cocktail and 1 mM 4-(2-Aminoethyl)benzenesulfonyl fluoride hydrochloride (AEBSF)) was added to each well and the plates placed on ice for 30 minutes. Ten μL of 5M NaCl was then added to each well and incubation on ice continued for another 15 minutes. The material in each well was suspended pipetting up and down and then transferred to a new 96 well plate. […]
The antibody mix was then removed and the wells washed with Blocker A. One hundred-fifty μL of freshly prepared 1×MSD Read Buffer (Meso-Scale Discovery; Cat #R927C-2) was then added to each well and the plates read on a MSD Sector 2400 Plate Reader.
Data was analyzed using Assay Assistant (Constellation Pharmaceuticals In-house product) and Activity Base (IDBS Ltd, Surrey, UK) template. […] Readout of DMSO wells were used to normalize the data. […]

[4] = biological target: Y641N EZH2 (Homo sapiens, UniProt Q15910, Y641N); assay: Y641N EZH2 assay, H3K27Me2 oligonucleosomes as substrate; type: biochemical
Description: as §1, §2

Chain of EZH2 (Q15910 whole entry): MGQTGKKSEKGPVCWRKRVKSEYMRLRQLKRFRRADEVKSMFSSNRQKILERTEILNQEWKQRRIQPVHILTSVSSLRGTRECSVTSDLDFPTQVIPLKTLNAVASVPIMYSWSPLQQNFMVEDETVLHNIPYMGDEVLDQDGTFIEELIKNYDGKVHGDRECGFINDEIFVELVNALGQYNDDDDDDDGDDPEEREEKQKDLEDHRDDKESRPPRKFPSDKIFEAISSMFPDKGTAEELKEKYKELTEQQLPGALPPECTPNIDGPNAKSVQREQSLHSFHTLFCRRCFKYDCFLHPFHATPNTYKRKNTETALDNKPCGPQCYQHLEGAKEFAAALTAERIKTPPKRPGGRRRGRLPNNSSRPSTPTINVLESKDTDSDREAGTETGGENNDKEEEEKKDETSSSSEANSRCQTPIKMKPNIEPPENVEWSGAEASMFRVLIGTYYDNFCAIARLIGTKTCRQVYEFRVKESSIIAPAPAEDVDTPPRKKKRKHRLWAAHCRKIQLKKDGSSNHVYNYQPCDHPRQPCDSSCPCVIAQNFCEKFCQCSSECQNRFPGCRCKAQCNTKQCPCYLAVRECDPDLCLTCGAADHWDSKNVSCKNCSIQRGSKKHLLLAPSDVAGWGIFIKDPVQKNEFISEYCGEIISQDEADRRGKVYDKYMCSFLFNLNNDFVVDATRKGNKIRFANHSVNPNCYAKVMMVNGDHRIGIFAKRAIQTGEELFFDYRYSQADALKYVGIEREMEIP
Chain of EZH2 (O75530 whole entry partner): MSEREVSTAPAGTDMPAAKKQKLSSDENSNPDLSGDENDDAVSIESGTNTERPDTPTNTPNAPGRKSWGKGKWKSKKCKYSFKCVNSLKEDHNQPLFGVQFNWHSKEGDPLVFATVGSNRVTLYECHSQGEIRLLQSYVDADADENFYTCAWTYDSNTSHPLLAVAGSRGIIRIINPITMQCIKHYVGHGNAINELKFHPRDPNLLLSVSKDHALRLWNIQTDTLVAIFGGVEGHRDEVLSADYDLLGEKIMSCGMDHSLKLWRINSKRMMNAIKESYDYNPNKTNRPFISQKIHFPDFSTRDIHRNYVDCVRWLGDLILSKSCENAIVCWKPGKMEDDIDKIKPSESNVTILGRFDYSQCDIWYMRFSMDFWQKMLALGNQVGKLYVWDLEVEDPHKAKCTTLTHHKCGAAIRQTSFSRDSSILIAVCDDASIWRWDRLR
Chain of EZH2 (Q15022 whole entry partner): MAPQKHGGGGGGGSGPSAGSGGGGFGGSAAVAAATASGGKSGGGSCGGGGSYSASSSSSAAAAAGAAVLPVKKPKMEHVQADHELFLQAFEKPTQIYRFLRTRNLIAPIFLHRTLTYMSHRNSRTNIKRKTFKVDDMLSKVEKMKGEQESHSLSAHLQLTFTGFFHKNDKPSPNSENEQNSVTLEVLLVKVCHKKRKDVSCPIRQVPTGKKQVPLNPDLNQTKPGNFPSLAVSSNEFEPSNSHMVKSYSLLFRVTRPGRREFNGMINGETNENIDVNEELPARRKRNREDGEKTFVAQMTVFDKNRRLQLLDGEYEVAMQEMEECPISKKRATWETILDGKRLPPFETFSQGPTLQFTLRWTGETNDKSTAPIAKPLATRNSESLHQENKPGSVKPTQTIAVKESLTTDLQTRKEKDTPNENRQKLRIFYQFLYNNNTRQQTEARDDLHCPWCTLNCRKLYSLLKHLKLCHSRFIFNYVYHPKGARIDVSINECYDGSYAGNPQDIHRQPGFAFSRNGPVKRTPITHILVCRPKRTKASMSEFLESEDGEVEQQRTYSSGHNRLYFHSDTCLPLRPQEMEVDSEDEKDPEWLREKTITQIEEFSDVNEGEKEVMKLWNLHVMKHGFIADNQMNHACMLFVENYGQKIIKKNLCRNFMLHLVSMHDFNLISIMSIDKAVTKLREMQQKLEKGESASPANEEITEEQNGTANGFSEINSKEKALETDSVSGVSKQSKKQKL
Chain of Y641N EZH2 (Q15910 whole entry Y641N): as the sequence (Q15910 whole entry) above, with Y641N counted along it
Chain of Y641N EZH2 (O75530 whole entry partner): as the sequence (O75530 whole entry partner) above
Chain of Y641N EZH2 (Q15022 whole entry partner): as the sequence (Q15022 whole entry partner) above

## COc1cc(C)[nH]c(=O)c1CNC(=O)c1c(C)n(C(C)C2CCC(F)(F)CC2)c2ccccc12 (racemic) [Compound 304, (±)-1-(1-(4,4-difluorocyclohexyl)ethyl)-N-((4-methoxy-6-methyl-2-oxo-1,2-dihydropyridin-3-yl)methyl)-2-methyl-1H-indole-3-carboxamide]
[1]; Homo sapiens
  EC50: < 400 nM
[2]; EZH2 IC50, rPRC2, biotinylated oligonucleosomes
  IC50: < 100 nM
[3]; Homo sapiens
  EC50: < 400 nM
[4]
  IC50: < 100 nM

## CCS(=O)(=O)N1CCC(C(C)n2c(C)c(C(=O)NCc3c(OC)cc(C)[nH]c3=O)c3ccccc32)CC1 (single isomer, unassigned) [Compound 345, (R or S)-1-(1-(1-(ethylsulfonyl)piperidin-4-yl)ethyl)-N-((4-methoxy-6-methyl-2-oxo-1,2-dihydropyridin-3-yl)methyl)-2-methyl-1H-indole-3-carboxamide]
[1]; Homo sapiens
  EC50: < 400 nM

## COc1cc(C)[nH]c(=O)c1CNC(=O)c1c(C)n(C(C)C2CCCNC2)c2ccccc12 (stereo not drawn) [Compound 315]
[3]
  EC50: > 10000 nM

## (R or S)-1-(1-(4-(isopropylsulfonyl)cyclohexyl)ethyl)-N-((4-methoxy-6-methyl-2-oxo-1,2-dihydropyridin-3-yl)methyl)-2-methyl-1H-indole-3-carboxamide [Compound 355]
[1]
  EC50: < 400 nM
[2]; rPRC2, biotinylated oligonucleosomes, read-out: EZH2 IC50
  IC50: < 100 nM
[4]; Y641N EZH2 mutant enzyme, H3K27Me2 oligonucleosomes, read-out: Y641N EZH2 IC50
  IC50: < 100 nM

From USRE47428E1, “Modulators of methyl modifying enzymes, compositions and uses thereof” (Constellation Pharmaceuticals, Inc., priority 2013, dated 2019)
